Measured values from PubChem BioAssay (NCI).
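In this assay, cells in 96-well plates receive the compound at five concentrations for 48 hours. Endpoints are linearly interpolated between the surrounding concentrations. The concentration for full growth arrest is given as TGI.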

Tests used:
Assay in all cases: NCI anticancer screen, dose series, 48 h
DU-145 prostate = test system: DU-145 prostate
COLO 205 colon = test system: COLO 205 colon
MOLT-4 leukemia = test system: MOLT-4 leukemia
HCT-116 colon = test system: HCT-116 colon
BT-549 breast = test system: BT-549 breast
TK-10 renal = test system: TK-10 renal
SK-MEL-28 melanoma = test system: SK-MEL-28 melanoma
786-0 renal = test system: 786-0 renal
T-47D breast = test system: T-47D breast
MDA-N = test system: MDA-N
SF-268 CNS = test system: SF-268 CNS
HT29 colon = test system: HT29 colon
UACC-62 melanoma = test system: UACC-62 melanoma
M14 melanoma = test system: M14 melanoma
KM12 colon = test system: KM12 colon
UO-31 renal = test system: UO-31 renal
SK-MEL-5 melanoma = test system: SK-MEL-5 melanoma
HCC-2998 colon = test system: HCC-2998 colon
OVCAR-8 ovarian = test system: OVCAR-8 ovarian
PC-3 prostate = test system: PC-3 prostate
SNB-75 CNS = test system: SNB-75 CNS
IGROV1 ovarian = test system: IGROV1 ovarian
HOP-62 NSCLC = test system: HOP-62 NSCLC
NCI-H23 lung = test system: NCI-H23 lung
A498 renal = test system: A498 renal
LOX IMVI melanoma = test system: LOX IMVI melanoma
OVCAR-3 ovarian = test system: OVCAR-3 ovarian
SF-539 CNS = test system: SF-539 CNS
EKVX NSCLC = test system: EKVX NSCLC
HCT-15 colon = test system: HCT-15 colon
HS 578T breast = test system: HS 578T breast
MCF7 breast = test system: MCF7 breast
RPMI-8226 leukemia = test system: RPMI-8226 leukemia
RXF 393 renal = test system: RXF 393 renal
SK-MEL-2 melanoma = test system: SK-MEL-2 melanoma
OVCAR-5 ovarian = test system: OVCAR-5 ovarian
HOP-92 NSCLC = test system: HOP-92 NSCLC
NCI-H522 lung = test system: NCI-H522 lung
SF-295 CNS = test system: SF-295 CNS
MDA-MB-435 = test system: MDA-MB-435
SN12C renal = test system: SN12C renal
NCI/ADR-RES ovarian = test system: NCI/ADR-RES ovarian
SK-OV-3 ovarian = test system: SK-OV-3 ovarian
HL-60(TB) leukemia = test system: HL-60(TB) leukemia
NCI-H460 lung = test system: NCI-H460 lung
U251 CNS = test system: U251 CNS
SW-620 colon = test system: SW-620 colon
MDA-MB-231 breast = test system: MDA-MB-231 breast
CCRF-CEM leukemia = test system: CCRF-CEM leukemia
CAKI-1 renal = test system: CAKI-1 renal
MALME-3M melanoma = test system: MALME-3M melanoma
UACC-257 melanoma = test system: UACC-257 melanoma
A549 NSCLC = test system: A549 NSCLC
ACHN renal = test system: ACHN renal
K-562 leukemia = test system: K-562 leukemia
SR leukemia = test system: SR leukemia
SNB-19 CNS = test system: SNB-19 CNS

Structure (SMILES): COc1cc(/C=C2\N=C(c3ccccc3)N(c3nc4c(OC)ccc(OC)c4s3)C2=O)ccc1O
- TGI (DU-145 prostate): > 100 µM
- TGI (COLO 205 colon): > 100 µM
- TGI (MOLT-4 leukemia): 39.5 µM
- TGI (HCT-116 colon): > 100 µM
- TGI (BT-549 breast): > 100 µM
- TGI (TK-10 renal): > 100 µM
- TGI (SK-MEL-28 melanoma): > 100 µM
- TGI (786-0 renal): > 100 µM
- TGI (T-47D breast): 26.4 µM
- TGI (MDA-N): 62 µM
- TGI (SF-268 CNS): > 100 µM
- TGI (HT29 colon): > 100 µM
- TGI (UACC-62 melanoma): > 100 µM
- TGI (M14 melanoma): > 100 µM
- TGI (KM12 colon): > 100 µM
- TGI (UO-31 renal): > 100 µM
- TGI (SK-MEL-5 melanoma): > 100 µM
- TGI (HCC-2998 colon): > 100 µM
- TGI (OVCAR-8 ovarian): > 100 µM
- TGI (PC-3 prostate): > 100 µM
- TGI (SNB-75 CNS): 93.2 µM
- TGI (IGROV1 ovarian): > 100 µM
- TGI (HOP-62 NSCLC): > 100 µM
- TGI (NCI-H23 lung): > 100 µM
- TGI (A498 renal): > 100 µM
- TGI (LOX IMVI melanoma): 53.2 µM
- TGI (OVCAR-3 ovarian): > 100 µM
- TGI (SF-539 CNS): > 100 µM
- TGI (EKVX NSCLC): > 100 µM
- TGI (HCT-15 colon): > 100 µM
- TGI (HS 578T breast): > 100 µM
- TGI (MCF7 breast): 33.2 µM
- TGI (RPMI-8226 leukemia): 62.8 µM
- TGI (RXF 393 renal): > 100 µM
- TGI (SK-MEL-2 melanoma): > 100 µM
- TGI (OVCAR-5 ovarian): > 100 µM
- TGI (HOP-92 NSCLC): > 100 µM
- TGI (NCI-H522 lung): > 100 µM
- TGI (SF-295 CNS): > 100 µM
- TGI (MDA-MB-435): 50.7 µM
- TGI (SN12C renal): > 100 µM
- TGI (NCI/ADR-RES ovarian): > 100 µM
- TGI (SK-OV-3 ovarian): > 100 µM
- TGI (HL-60(TB) leukemia): > 100 µM
- TGI (NCI-H460 lung): > 100 µM
- TGI (U251 CNS): > 100 µM
- TGI (SW-620 colon): > 100 µM
- TGI (MDA-MB-231 breast): > 100 µM
- TGI (CCRF-CEM leukemia): > 100 µM
- TGI (CAKI-1 renal): > 100 µM
- TGI (MALME-3M melanoma): > 100 µM
- TGI (UACC-257 melanoma): > 100 µM
- TGI (A549 NSCLC): > 100 µM
- TGI (ACHN renal): > 100 µM
- TGI (K-562 leukemia): 42.4 µM
- TGI (SR leukemia): > 100 µM
- TGI (SNB-19 CNS): > 100 µM
